Where a name gives a salt, the structure may show the parent alone.
Assays:
human V2 receptor = human V2 receptor (Homo sapiens, UniProt P30518); assay: Vasopressin 2 (V2) Receptor Binding; details: competition with 0.5 nM 3H-vasopressin, membranes of CHO cells expressing human V2 receptor, 2 hours at 22° C.
[1] = molecular target: Vasopressin 1 (V1) receptor (Homo sapiens, UniProt P37288); assay: Vasopressin 1 (V1) Receptor Binding; details: competition with 1.5 nM 3H-vasopressin, platelet membrane preparation from blood of normal subjects, 15 minutes at 30° C.
Sequence of Vasopressin 1 (V1) receptor (P37288 whole entry): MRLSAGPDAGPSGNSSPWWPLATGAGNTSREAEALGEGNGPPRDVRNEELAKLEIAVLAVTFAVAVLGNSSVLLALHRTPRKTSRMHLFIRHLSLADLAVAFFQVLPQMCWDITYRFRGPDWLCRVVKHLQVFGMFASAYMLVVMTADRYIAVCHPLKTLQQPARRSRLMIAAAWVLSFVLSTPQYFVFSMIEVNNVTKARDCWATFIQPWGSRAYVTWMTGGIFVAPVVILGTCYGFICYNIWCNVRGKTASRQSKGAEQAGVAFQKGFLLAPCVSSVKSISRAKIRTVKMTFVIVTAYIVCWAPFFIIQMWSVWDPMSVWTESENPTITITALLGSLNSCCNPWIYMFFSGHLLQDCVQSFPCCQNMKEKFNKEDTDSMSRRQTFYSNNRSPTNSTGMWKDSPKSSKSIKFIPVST

Sequence of human V2 receptor (P30518 whole entry): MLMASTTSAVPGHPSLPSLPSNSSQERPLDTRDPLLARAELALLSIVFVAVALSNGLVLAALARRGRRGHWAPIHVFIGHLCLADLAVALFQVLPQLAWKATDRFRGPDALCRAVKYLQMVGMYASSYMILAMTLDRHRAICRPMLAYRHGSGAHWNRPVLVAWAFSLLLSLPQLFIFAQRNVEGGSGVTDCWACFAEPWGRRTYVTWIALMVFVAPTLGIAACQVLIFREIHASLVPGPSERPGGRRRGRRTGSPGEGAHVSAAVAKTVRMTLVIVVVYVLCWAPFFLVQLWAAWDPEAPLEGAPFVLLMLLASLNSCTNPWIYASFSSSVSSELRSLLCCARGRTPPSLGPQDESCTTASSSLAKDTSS

Row | IC50 (human V2 receptor) [nM] | IC50 [1] [nM] | SMILES
1 | 1300 | 51 | Cc1ccc(N(C)C(=O)c2ccc(NC(=O)c3ccccc3N)cc2)c(OCCCCCC(=O)O)c1 [5-2), 4-(2-Aminobenzoyl)amino-N-methyl-N-[2-(5-carboxypent-1-yloxy)-4-methylphenyl]benzamide]
2 | 1400 | 14 | CN1CCN(C(=O)CCCCCOc2ccccc2N(C)C(=O)c2ccc(NC(=O)c3ccccc3OCCCN)cc2)CC1 [Example 16, 4-[2-[(3-aminoprop-1-yl)oxy]benzoyl]amino-N-methyl-N-[2-[5-(4-methylpiperazin-1-yl)carbonylpent-1-yloxy]phenyl]benzamide dihydrochloride]
3 | 1300 | 31 | CCOC(=O)CCCCCOc1cc(C)ccc1N(C)C(=O)c1ccc(NC(=O)c2ccccc2OCCCN)cc1 [17-20), 4-[2-(3-Aminoprop-1-yl)oxybenzoyl]amino-N-[2-(5-ethoxycarbonylpent-1-yl)oxy-4-methyl]phenyl-N-methylbenzamide hydrochoiride]

Reference: patent publication US6054457A, “Benzamide derivatives and their use as vasopressin antagonists” (Fujisawa Pharmaceutical Co., Ltd., priority 1995, dated 2000)
